Patent US20260226073A1 (AURIGENE ONCOLOGY LIMITED, priority 2023, published 2026)
pEC50, pIC50: −log10 of the molar value.

Key:
[1] = biological target: T1, human recombinant CBL-b (human Biotin CBL-b recombinant protein a.a. 39-426) (Homo sapiens, UniProt Q13191); test: Biochemical assay for CBL-b inhibition (ligand displacement TR-FRET); assay type: binding; settings: 50 nM CBL-b, 0.3 μM Bodipy FL-Probe, read-out: IC50 (CBL-b inhibition, group)
T1 construct: human Biotin CBL-b recombinant protein a.a; 39-426; Biotin (biotinylated); made in house
T1 sequence (Q13191 39-426): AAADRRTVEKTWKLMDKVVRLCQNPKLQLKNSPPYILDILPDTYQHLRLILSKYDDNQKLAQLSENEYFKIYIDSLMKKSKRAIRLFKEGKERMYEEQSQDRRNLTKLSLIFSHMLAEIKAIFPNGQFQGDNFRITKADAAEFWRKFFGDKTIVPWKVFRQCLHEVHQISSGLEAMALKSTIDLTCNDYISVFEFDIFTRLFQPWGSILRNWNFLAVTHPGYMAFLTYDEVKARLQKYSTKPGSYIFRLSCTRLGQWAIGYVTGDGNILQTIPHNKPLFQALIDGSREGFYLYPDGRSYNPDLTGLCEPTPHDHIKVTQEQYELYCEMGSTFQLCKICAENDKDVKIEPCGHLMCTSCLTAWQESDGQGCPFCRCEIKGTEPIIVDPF
Summary of the method: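 Biotinylated CBL-b (a.a. 39-426, 50 nM final) pre-incubated with compound 60 min at RT in HEPES/NaCl/Triton/BSA/TCEP buffer, then Bodipy FL probe (0.3 μM final) 60 min, then terbium-streptavidin 60 min. TR-FRET read at 665/615 nm; IC50 and % max inhibition from sigmoidal fits.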

[2] = test system: NFAT signaling pathway in Jurkat NFAT reporter cells; test: Jurkat NFAT reporter assay; assay type: cell-based; settings: Homo sapiens, 30 min with compound, then soluble anti-human CD3/CD28 antibody for 6 hours, luciferase readout, read-out: EC50 (Group)
Summary of the method: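 Jurkat cells bearing an NFAT-RE-driven luciferase reporter (1×10^5 per well) preincubated with Cbl-b inhibitor for 30 min, then stimulated 6 h with soluble anti-CD3/CD28. Luminescence read with Bio-Glo; values are fold change over anti-CD3/CD28-stimulated cells without inhibitor.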

Compound	pIC50 [1]	pEC50 [2]
Cc1cc(CNCC2CCC2)cc(N2Cc3ccc(-c4ccc(F)cc4-c4nncn4C)cc3C2=O)n1 [Compound 134, 2-(4-(((Cyclobutylmethyl)amino)methyl)-6-methylpyridin-2-yl)-6-(4-fluoro-2-(4-methyl-4H-1,2,4-triazol-3-yl)phenyl)isoindolin-1-one]	> 7.10	> 6.52
C[C@@H]1C[C@H](C)CN(Cc2cc(N3Cc4ccc(C5(Cc6nncn6C)CC(C#N)C5)cc4C3=O)nc(C(F)(F)F)c2)C1 (stereo partly shown) [Compound 143]	> 7.10	> 6.52
Cn1cnnc1CC1(c2ccc3c(c2)C(=O)N(c2cc(CNCC4CCC4)cc(Cl)n2)C3)COC1 [Compound 144, 2-(6-Chloro-4-(((cyclobutylmethyl)amino)methyl)pyridin-2-yl)-6-(3-((4-methyl-4H-1,2,4-triazol-3-yl)methyl)oxetan-3-yl)isoindolin-1-one]	> 7.10	> 6.52
Cn1cnnc1CC1(c2ccc3c(c2)C(=O)N(c2cc(CNCC4CC4)cc(Cl)n2)C3)CCC1 [Compound 145, 2-(6-Chloro-4-(((cyclopropylmethyl)amino)methyl)pyridin-2-yl)-6-(1-((4-methyl-4H-1,2,4-triazol-3-yl)methyl)cyclobutyl)isoindolin-1-one]	> 7.10	> 6.52
Cc1cc(CNCC2CC2)cc(N2Cc3ccc(C4(Cc5nncn5C)COC4)cc3C2=O)n1 [Compound 147, 2-(4-(((Cyclopropylmethyl)amino)methyl)-6-methylpyridin-2-yl)-6-(3-((4-methyl-4H-1,2,4-triazol-3-yl)methyl)oxetan-3-yl)isoindolin-1-one]	> 7.10	6.00 to 6.52
CCC1CCCN(Cc2cc(Cl)nc(N3Cc4ccc(C5(Cc6nncn6C)COC5)cc4C3=O)c2)C1 (stereo not shown) [Compound 148, 2-(6-Chloro-4-((3-ethylpiperidin-1-yl)methyl)pyridin-2-yl)-6-(3-((4-methyl-4H-1,2,4-triazol-3-yl)methyl)oxetan-3-yl)isoindolin-1-one]	> 7.10	> 6.52
Cn1cnnc1CC1(c2ccc3c(c2)C(=O)N(c2cc(CNCCC(F)(F)F)cc(Cl)n2)C3)CCC1 [Compound 151, 2-(6-Chloro-4-(((3,3,3-trifluoropropyl)amino)methyl)pyridin-2-yl)-6-(1-((4-methyl-4H-1,2,4-triazol-3-yl)methyl)cyclobutyl)isoindolin-1-one]	> 7.10	> 6.52
C[C@H]1CCCN(Cc2cc(Cl)nc(N3Cc4ccc(C5(Cc6nncn6C)CC(F)(F)C5)cc4C3=O)c2)C1 [Compound 152, (S)-2-(6-Chloro-4-((3-methylpiperidin-1-yl)methyl)pyridin-2-yl)-6-(3,3-difluoro-1-((4-methyl-4H-1,2,4-triazol-3-yl)methyl)cyclobutyl)isoindolin-1-one]	> 7.10	> 6.52
Cn1cnnc1CC1(c2ccc3c(c2)C(=O)N(c2cc(CNCC4CC4)cc(Cl)n2)C3)CC(C#N)C1 (stereo not shown) [Compound 156]	> 7.10	6.00 to 6.52
Cn1cnnc1CC1(c2ccc3c(c2)C(=O)N(c2cc(CN4CCCCCC4)cc(Cl)n2)C3)COC1 [Compound 157]	> 7.10	> 6.52
Cn1cnnc1CC1(c2ccc3c(c2)C(=O)N(c2cc(CNCCC(F)(F)F)cc(Cl)n2)C3)CC(C#N)C1 (stereo not shown) [Compound 158, 3-(2-(6-Chloro-4-(((3,3,3-trifluoropropyl)amino)methyl)pyridin-2-yl)-3-oxoisoindolin-5-yl)-3-((4-methyl-4H-1,2,4-triazol-3-yl)methyl)cyclobutane-1-carbonitrile]	> 7.10	5.00 to 6.00
Cn1cnnc1CC1(c2ccc3c(c2)C(=O)N(c2cc(CNCC4CCCC4)cc(Cl)n2)C3)COC1 [Compound 159, 2-(6-Chloro-4-(((cyclopentylmethyl)amino)methyl)pyridin-2-yl)-6-(3-((4-methyl-4H-1,2,4-triazol-3-yl)methyl)oxetan-3-yl)isoindolin-1-one]	> 7.10	> 6.52
Cn1cnnc1CC1(c2ccc3c(c2)C(=O)N(c2cc(CNCC4CCC4)cc(C(F)(F)F)n2)C3)COC1 [Compound 162, 2-(4-(((Cyclobutylmethyl)amino)methyl)-6-(trifluoromethyl)pyridin-2-yl)-6-(3-((4-methyl-4H-1,2,4-triazol-3-yl)methyl)oxetan-3-yl)isoindolin-1-one]	> 7.10	> 6.52
Cn1cnnc1CC1(c2ccc3c(c2)C(=O)N(c2cc(CNCC4CCC4)cc(Cl)n2)C3)CCC1 [Compound 168]	> 7.10	> 6.52
Cn1cnnc1CC1(c2ccc3c(c2)C(=O)N(c2cc(CNCC4CC(F)(F)C4)cc(Cl)n2)C3)COC1 [Compound 169, 2-(6-Chloro-4-((((3,3-difluorocyclobutyl)methyl)amino)methyl)pyridin-2-yl)-6-(3-((4-methyl-4H-1,2,4-triazol-3-yl)methyl)oxetan-3-yl)isoindolin-1-one]	> 7.10	> 6.52
Cn1cnnc1CC1(c2ccc3c(c2)C(=O)N(c2cc(CNCC4(C)CCC4)cc(Cl)n2)C3)COC1 [Compound 172, 2-(6-Chloro-4-((((1-methylcyclobutyl)methyl)amino)methyl)pyridin-2-yl)-6-(3-((4-methyl-4H-1,2,4-triazol-3-yl)methyl)oxetan-3-yl)isoindolin-1-one]	> 7.10	6.00 to 6.52

Compound	pIC50 [1]	pEC50 [2]
Cn1cnnc1CC1(c2ccc3c(c2)C(=O)N(c2cc(CNCC4CC4(F)F)cc(Cl)n2)C3)COC1 (stereo not shown) [Compound 175, 2-(6-Chloro-4-((((2,2-difluorocyclopropyl)methyl)amino)methyl)pyridin-2-yl)-6-(3-((4-methyl-4H-1,2,4-triazol-3-yl)methyl)oxetan-3-yl)isoindolin-1-one]	> 7.10	6.00 to 6.52
CC1CN(Cc2cc(Cl)nc(N3Cc4ccc(C5(Cc6nncn6C)COC5)cc4C3=O)c2)CCC1(F)F (stereo not shown) [Compound 178]	> 7.10	6.00 to 6.52
Cn1cnnc1CC1(c2ccc3c(c2)C(=O)N(c2cc(CNCC4CCC4)cc(Cl)n2)C3)CC(C#N)C1 (stereo not shown) [Compound 182, 3-(2-(6-Chloro-4-(((cyclobutylmethyl)amino)methyl)pyridin-2-yl)-3-oxoiso-indolin-5-yl)-3-((4-methyl-4H-1,2,4-triazol-3-yl)methyl)cyclobutane-1-carbonitrile]	> 7.10	> 6.52
Cn1cnnc1CC1(c2ccc3c(c2)C(=O)N(c2cc(CNCC4(F)CCC4)cc(Cl)n2)C3)COC1 [Compound 185]	> 7.10	5.00 to 6.00
Cn1cnnc1CC1(c2ccc3c(c2)C(=O)N(c2cc(CNCC(C)(C)O)cc(Cl)n2)C3)COC1 [Compound 187]	> 7.10	5.00 to 6.00
Cn1cnnc1CC1(c2ccc3c(c2)C(=O)N(c2cc(CNCC4CCCO4)cc(Cl)n2)C3)COC1 (stereo not shown) [Compound 188, 2-(6-Chloro-4-((((tetrahydrofuran-2-yl)methyl)amino)methyl)pyridin-2-yl)-6-(3-((4-methyl-4H-1,2,4-triazol-3-yl)methyl)oxetan-3-yl)isoindolin-1-one]	> 7.10	6.00 to 6.52
Cn1cnnc1CC1(c2ccc3c(c2)C(=O)N(c2cc(CNCc4cscn4)cc(Cl)n2)C3)COC1 [Compound 189]	> 7.10	5.00 to 6.00
CC(Cc1nncn1C)Nc1ccc2c(c1)C(=O)N(c1cc(CN3CCC[C@H](C)C3)cc(Cl)n1)C2 (stereo partly shown) [Compound 190]	> 7.10	5.00 to 6.00
Cn1cnnc1CC1(c2ccc3c(c2)C(=O)N(c2cc(CNC4CCCC4O)cc(Cl)n2)C3)COC1 (stereo not shown) [Compound 193, 2-(6-Chloro-4-(((2-hydroxycyclopentyl)amino)methyl)pyridin-2-yl)-6-(3-((4-methyl-4H-1,2,4-triazol-3-yl)methyl)oxetan-3-yl)isoindolin-1-one]	> 7.10	5.00 to 6.00
CC1CN(Cc2cc(Cl)nc(N3Cc4ccc(C5(Cc6nncn6C)COC5)cc4C3=O)c2)CC1F (stereo not shown) [Compound 197]	> 7.10	6.00 to 6.52
Cc1nc(N2Cc3ccc(C4(Cc5nncn5C)COC4)cc3C2=O)cc(CNCC2CC2)c1F [Compound 198]	> 7.10	5.00 to 6.00
CC(NCC1CC1(F)F)c1cc(Cl)nc(N2Cc3ccc(C4(Cc5nncn5C)COC4)cc3C2=O)c1 (stereo not shown) [Compound 199, 2-(6-Chloro-4-(1-(((2,2-difluorocyclopropyl)methyl)amino)ethyl)pyridin-2-yl)-6-(3-((4-methyl-4H-1,2,4-triazol-3-yl)methyl)oxetan-3-yl)isoindolin-1-one]	> 7.10	> 6.52
Cn1cnnc1CC1(c2ccc3c(c2)C(=O)N(c2cc(CNC4CCCC4)cc(Cl)n2)C3)COC1 [Compound 201, 2-(6-Chloro-4-((cyclopentylamino)methyl)pyridin-2-yl)-6-(3-((4-methyl-4H-1,2,4-triazol-3-yl)methyl)oxetan-3-yl)isoindolin-1-one]	> 7.10	> 6.52
CC(CNCc1cc(Cl)nc(N2Cc3ccc(C4(Cc5nncn5C)COC4)cc3C2=O)c1)C(F)(F)F (stereo not shown) [Compound 202, 2-(6-Chloro-4-(((3,3,3-trifluoro-2-methylpropyl)amino)methyl)pyridin-2-yl)-6-(3-((4-methyl-4H-1,2,4-triazol-3-yl)methyl)oxetan-3-yl)isoindolin-1-one]	> 7.10	> 6.52
CC(NCc1cscn1)c1cc(Cl)nc(N2Cc3ccc(C4(Cc5nncn5C)COC4)cc3C2=O)c1 (stereo not shown) [Compound 205]	> 7.10	> 6.52
Cn1cnnc1CC1(c2ccc3c(c2)C(=O)N(c2cc(CNCC4(O)CCC4)cc(Cl)n2)C3)COC1 [Compound 216]	> 7.10	5.00 to 6.00
